This note sets out measurements from US9765075B2, “Substituted bridged urea analogs as sirtuin modulators” (GLAXOSMITHKLINE LLC, priority 2013, dated 2017).

The EC50 is the concentration needed to bring the measured effect to its halfway point. A low value points to greater potency. As a reminder, the IC50 is the point on the concentration scale where inhibition reaches its midpoint.

Holding throughout (type): biochemical
For one data set, the target named is T1, full-length hSIRT1 T219A (Homo sapiens, UniProt Q96EB6, T219A).
T1 construct: The following point mutants of full-length hSIRT1 were generated; His6 (C); made in house
T1 sequence (Q96EB6 1-747 T219A): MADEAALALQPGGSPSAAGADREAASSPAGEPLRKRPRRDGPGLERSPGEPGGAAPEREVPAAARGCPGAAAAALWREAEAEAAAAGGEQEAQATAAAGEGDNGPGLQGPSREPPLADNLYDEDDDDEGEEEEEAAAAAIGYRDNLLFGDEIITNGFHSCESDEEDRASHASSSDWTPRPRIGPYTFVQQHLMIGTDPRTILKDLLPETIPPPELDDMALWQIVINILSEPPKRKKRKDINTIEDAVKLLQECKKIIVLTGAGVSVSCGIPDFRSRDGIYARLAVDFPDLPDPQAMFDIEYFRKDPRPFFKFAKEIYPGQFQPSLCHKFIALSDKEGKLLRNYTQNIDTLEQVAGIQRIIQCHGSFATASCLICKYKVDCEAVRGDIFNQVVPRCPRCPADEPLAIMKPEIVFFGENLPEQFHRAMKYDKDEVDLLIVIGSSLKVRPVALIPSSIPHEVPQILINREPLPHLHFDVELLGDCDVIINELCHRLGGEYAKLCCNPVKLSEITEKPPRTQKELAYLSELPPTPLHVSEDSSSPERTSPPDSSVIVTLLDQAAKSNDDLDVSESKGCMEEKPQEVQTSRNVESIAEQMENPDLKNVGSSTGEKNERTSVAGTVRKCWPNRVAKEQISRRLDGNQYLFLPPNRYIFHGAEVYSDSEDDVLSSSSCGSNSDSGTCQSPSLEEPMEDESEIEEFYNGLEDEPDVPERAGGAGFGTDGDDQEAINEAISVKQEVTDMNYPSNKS
Kind of data set: SIRT1 activation dose-response, OAcADPr assay with Ac-p53(W5) substrate. The following applies: for EC50: hSIRT1 T219A, activation dose-response, Ac-p53(W5) substrate.

In another data set the target is T2, full-length hSIRT1 I227A (Homo sapiens, UniProt Q96EB6, I227A).
T2 construct: The following point mutants of full-length hSIRT1 were generated; His6 (C); made in house
T2 sequence (Q96EB6 1-747 I227A): T1 sequence (Q96EB6 1-747 T219A) with A219T, I227A
Kind of data set: SIRT1 inhibition assay, OAcADPr mass spectrometry.

A further data set concerns the target T3, full-length hSIRT1 V224A (Homo sapiens, UniProt Q96EB6, V224A).
T3 construct: The following point mutants of full-length hSIRT1 were generated; His6 (C); made in house
T3 sequence (Q96EB6 1-747 V224A): T1 sequence (Q96EB6 1-747 T219A) with A219T, V224A
Kind of data set: SIRT1 inhibition assay, OAcADPr mass spectrometry.

The structures appear in SMILES notation. Numbering of substitutions follows the chain as printed. Structures can show the parent of a compound that is named as a salt.

Consider `O=C(Nc1ccccn1)N1c2nc(-c3cccc(C(F)(F)F)c3)ccc2N2CC[C@H]1C2` [Example 7], for which, at full-length hSIRT1 T219A, the “EC50 fold shift (mutant EC50/wild-type EC50)” value was 4.01, the “RVmax fold shift = (wild-type RVmax−1)/(mutant RVmax−1)” value worked out at 2.73 and the response was half-maximal at 8830 nM (EC50).
On to `Cc1cnc2c(NC(=O)N3c4nc(-c5cccc(C(F)(F)F)c5)ccc4N4CC[C@H]3C4)cccc2n1` [Example 8], for which, at full-length hSIRT1 T219A, the “EC50 fold shift (mutant EC50/wild-type EC50)” value came out at 8.26, the “RVmax fold shift = (wild-type RVmax−1)/(mutant RVmax−1)” value turned out to be 1.64 and the EC50 came to 3960 nM.
Take `CCCC[C@H](NC(=O)[C@H](CC(C)C)NC(=O)[C@H](CCCCNC(=O)C(F)(F)F)NC(=O)[C@H](CCCCN)NC(=O)[C@H](Cc1c[nH]cn1)NC(=O)[C@H](CCCNC(=N)N)NC(C)=O)C(=O)N[C@@H](Cc1ccccc1)C(N)=O` [TFA-p53 7-mer, Ac-RHK-K^TFA-L-Nle-F-NH2]: the IC50 against full-length hSIRT1 I227A is 940 ± 60 nM; against full-length hSIRT1 V224A, 860 ± 80 nM.
